This is an account of results in patent US20200093776A1, “MUCOSAL IMMUNOSTIMULATOR” (Yamada Bee Company, Inc., priority 2015, published 2020).

Experiment [1] has as its system Caco-2 cells. Briefly: M-cell differentiation induction test, FACS analysis using GP2 as an indicator. Type of experiment: cell-based, human. The conditions noted are these: Caco-2 single-layer film, final concentration 100 μM, cultured 3 days; for expression of GP2 (FACS): vs DMSO control. As for the experimental part:
(§1) As an in vitro M-cell model, Caco-2 cells derived from human intestinal epithelium cells were used. The Caco-2 cells were cultured in an EMEM medium (produced by Nissui Pharmaceutical Co., Ltd.) supplemented with 2% fetal calf serum (FCS, produced by CANSERA INTERNATIONAL), 2 mM glutamine (produced by Wako Pure Chemical Industries, Ltd.), and 0.1 mM nonessential amino acid (produced by Gibco) at 37° C. in the presence of 5% CO2. The cells were subcultured within a range of logarithmic growth (2.0×10^5 to 1.0×10^6 cells/mL). The cell concentration was determined by counting the number of living cells and the number of dead cells by the trypan blue staining method.
The induction of the differentiation of M cells by various fatty acids (10-hydroxydecanoic acid, (+/−)-3-hydroxydecanoic acid, (9R)-9,10-dihydroxydecanoic acid, and 10-hydroxy-2-(E)-decenoic acid) was analyzed by FACS using GP2 as an indicator. As the 10-hydroxydecanoic acid (10HDAA), one produced by SIGMA-ALDRICH was used; as the (+/−)-3-hydroxydecanoic acid (311DAA), one produced by SIGMA-ALDRICH was used; and as the 10-hydroxy-2-(E)-decenoic acid (10-HDA), one produced by Wako Pure Chemical Industries, Ltd. was used. The (9R)-9,10-dihydroxydecanoic acid (DDA-11) used was, synthesized based on the method described in Tetrahedron: Asymmetry, 2009, 20, pp. 457-460, by tosylating (4R)-4-(2-hydroxyethyl)-2,2-dimethyl-1,3-dioxolane, and extending the chain with 5-bromo-1-pentene by a Grignard reaction, followed by ozone degradation, Wittig reaction with diethylphosphonic acid ethyl ester, hydrogenation by a catalytic hydrogenation reaction, removal of acetonide by acetic acid treatment, and removal of the ethyl group by potassium hydroxide treatment.
Each of the above fatty acids was prepared as a DMSO solution (10 mM). After the Caco-2 cells were seeded in a 6-well plate and allowed to form a single-layer film, each of the above fatty acids was added so that the final concentration was […]. The same amount of DMSO was added as a control. The medium was as described above. After addition, the cells were cultured at 37° C. in the presence of 5% CO2 for 3 days. After culture, the cells were collected with 1 mM EDTA.2Na/PBS(−) (pH 7.2), and stained with rabbit anti-GP2 antibody (produced by IMGENEX) and Alexa 488-labeled anti-rabbit antibody (produced by Molecular probes). The stained cells were analyzed by FACS (produced by BECKMAN COULTER), and GP2 expression levels were quantified.

Experiment [2] concerns Caco-2 cells. Nature of the experiment: M-cell differentiation induction test, morphological analysis by electron microscope. Type of experiment: cell-based, human. To be noted: Caco-2 in Transwell insert, 100 μM applied from the apical side, 3 days. On the procedure: as §1
After the Caco-2 cells were seeded at 2×10^5 cells in a Transwell insert ([…] Transwell, produced by Corning) and allowed to form a single-layer film, 10-hydroxydecanoic acid (final concentration: […]) was applied from the apical side of the single-layer film, and the cells were cultured at 37° C. in the presence of 5% CO2 for 3 days.

The next experiment has as its system cynomolgus monkeys. Also on record: species or system Macaca fascicularis. To be noted: cynomolgus monkey, in vivo, po.

Take `O=C(O)/C=C/CCCCCCCO` [10-hydroxy-2-(E)-decenoic acid, reference compound]: in the experiment on Caco-2 cells [1], the “expression of GP2 (FACS)” value is listed as “did not induce the expression of GP2”.
Still for that read-out and setting: with `CCCCCCCC(O)CC(=O)O` (racemic) [(+/−)-3-hydroxydecanoic acid] the entry was “induced the expression of GP2”.
Take `O=C(O)CCCCCCCCCO` [10-hydroxydecanoic acid]: in the experiment with Caco-2 cells [1], the “intensity of induction of GP2 expression compared with (+/−)-3-hydroxydecanoic acid” value was “induced more intensely the expression of GP2” and the “expression of GP2 (FACS)” value is given as “induced the expression of GP2”. Besides, the “cell morphology (microvilli, M cell-like cells)” value with Caco-2 cells [2] was “cells with short microvilli were observed”. Also, in the experiment on cynomolgus monkeys, the “anti-Fetuin IgA antibody titer in the feces” value is “increases”, the “anti-influenza virus IgA antibody titer in the feces” value was “increases” and the “anti-poliovirus IgA antibody titer in the feces” value was “increases”.
Regarding `O=C(O)CCCCCCC[C@@H](O)CO` [(9R)-9,10-dihydroxydecanoic acid, reference compound], in the experiment with Caco-2 cells [1], the “expression of GP2 (FACS)” value is listed as “did not induce the expression of GP2”.
